{
  "source": "paper PMC11249953",
  "about": "“c-KIT inhibitors reduce pathology and improve behavior in the Tg(SwDI) model of Alzheimer’s disease” (Life Science Alliance, 2024)",
  "key": {"DDR1": {"target": "T1, DDR1 (Homo sapiens, UniProt Q08345)", "T1 construct": "DNA label for qPCR read-out (T7 phage fusion or DNA tag); purchased Eurofins DiscoverX Corporation; host or cells: T7 phage in E. coli (BL21-derived) or HEK-293", "T1 sequence (Q08345 19-913)": "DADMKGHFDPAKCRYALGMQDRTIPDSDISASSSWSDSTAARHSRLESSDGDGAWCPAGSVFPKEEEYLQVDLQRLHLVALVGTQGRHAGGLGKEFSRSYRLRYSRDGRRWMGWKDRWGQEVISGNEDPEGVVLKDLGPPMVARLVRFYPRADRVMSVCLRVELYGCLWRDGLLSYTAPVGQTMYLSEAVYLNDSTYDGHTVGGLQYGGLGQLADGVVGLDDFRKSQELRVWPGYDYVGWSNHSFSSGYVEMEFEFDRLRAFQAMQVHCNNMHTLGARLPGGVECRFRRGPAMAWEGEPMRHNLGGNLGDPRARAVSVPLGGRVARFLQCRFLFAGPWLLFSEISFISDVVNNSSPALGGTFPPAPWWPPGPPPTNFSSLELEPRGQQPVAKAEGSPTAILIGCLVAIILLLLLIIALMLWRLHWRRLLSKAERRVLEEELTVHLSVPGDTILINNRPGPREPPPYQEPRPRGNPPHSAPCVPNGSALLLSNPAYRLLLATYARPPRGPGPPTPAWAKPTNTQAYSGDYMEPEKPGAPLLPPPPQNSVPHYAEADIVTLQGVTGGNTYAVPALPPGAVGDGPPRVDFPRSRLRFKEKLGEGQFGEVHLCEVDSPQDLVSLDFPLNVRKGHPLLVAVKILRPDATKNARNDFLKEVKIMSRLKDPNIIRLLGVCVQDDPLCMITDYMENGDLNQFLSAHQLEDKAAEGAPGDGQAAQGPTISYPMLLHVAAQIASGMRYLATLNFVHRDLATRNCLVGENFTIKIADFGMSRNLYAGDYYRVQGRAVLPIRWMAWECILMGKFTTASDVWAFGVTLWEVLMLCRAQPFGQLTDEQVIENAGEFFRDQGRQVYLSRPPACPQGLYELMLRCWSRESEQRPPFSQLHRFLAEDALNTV", "test": "KINOMEscan competition binding, DDR1", "conditions": "10 µM compound", "procedure": "The KINOMEscan screening platform (Eurofins DiscoverX Corporation) was performed using active site-directed competition binding assay to quantitatively measure interactions between BK40143 and BK40197 and more than 450 human kinases and disease relevant mutant variants. […] Screening “hits” are identified by measuring the amount of kinase captured in test (BK40143 and BK40197) versus control samples by using a quantitative and ultra-sensitive qRT-PCR method that detects the associated DNA label. BK40143 and BK40197 were screened at 10 µM concentration, and results for primary screen binding interactions were reported as “% Ctrl” (POC), where lower numbers indicate stronger hits and calculated as follows: [test compound signal−positive control signal/negative control signal−positive control signal]×100\nnegative control = DMSO (100% Ctrl)\npositive control = control compound (0% Ctrl)\nBased on screening data from of profiled compounds, a proportional relationship between primary screening results and corresponding compound/target affinities can be described as binding constants (Kd values) for the indicated ranges of POC values with tighter binding (higher affinity) interactions associated with lower POC values and weaker binding (lower affinity) associated with higher POC values. Briefly, kinase-tagged T7 phage strains were grown in parallel in 24-well blocks in an E. coli host derived from the BL21 strain. E. coli were grown to log-phase and infected with T7 phage from a frozen stock (multiplicity of infection = 0.4) and incubated with shaking at 32°C until lysis (90–150 min). The lysates were centrifuged (6,000g) and filtered (0.2 μm) to remove cell debris. The remaining kinases were produced in HEK-293 cells and subsequently tagged with DNA for qRT-PCR detection. Streptavidin-coated magnetic beads were treated with biotinylated small molecule ligands for 30 min at RT to generate affinity resins for kinase assays. The liganded beads were blocked with excess biotin and washed with blocking buffer (1% BSA, 0.05% Tween 20, 1 mM DTT; SeaBlock [Pierce]) to remove unbound ligand and to reduce non-specific phage binding. Binding reactions were assembled by combining kinases, liganded affinity beads, and test compounds in 1x binding buffer (20% 0.17x PBS, 0.05% Tween 20, 6 mM DTT; SeaBlock). Test compounds were prepared as 100x stocks in 100% DMSO and directly diluted into the assay. All reactions were performed in polypropylene 384-well plates in a final volume of 0.02 ml. The assay plates were incubated at RT with shaking for 1 h and the affinity beads were washed with wash buffer (1x PBS, 0.05% Tween 20). […] The kinase concentration in the eluates was measured by qRT-PCR."}, "mice [1]": {"test_system": "mice", "test": "Elevated plus maze, source data sheets EPM (mouse line not given)", "type": "in vivo", "procedure": "The elevated plus maze was performed using a standard set up, with two enclosed arms and two open arms. Mice were placed at the intersection of the open and closed arms and allowed to freely explore for 5 min, two times. Time spent in the open and closed arms and number of entries into the open and closed arms were recorded."}, "mice [2]": {"test_system": "mice", "test": "Nesting, source data sheets Nesting (mouse line not given)", "type": "in vivo", "set-up": "key to Nesting Score AVG (of three observers) / Nesting Score AVG, group mean / Nesting Score / Nesting Score AVG: 0 = nestlet untouched to 5 = near perfect nest", "conditions": "one value per mouse, listed as 197", "procedure": "Mice were singly housed in standard cages overnight (6 pm–6 am) with a 3-gram cloth nestlet and allowed to freely behave. The next day, nestlets were weighed and photographed, and amount of nestlet shredding was recorded by three observers based on the following scale: 0—nestlet untouched, 1—nestlet hardly touched (more than 90% intact), 2—nestlet partially torn (50–90% intact), 3—mostly shredded but no identifiable nest, less than 50% intact but less than 90% in a single quarter of the cage, 4—An identifiable but flat nest, more than 90% torn and material is gathered in a single quarter of the cage, 5—A near perfect nest, more than 90% of the nestlet is torn and the nest is a crater, with walls higher than the mouse body height."}, "[3]": {"conditions": "Totals (Trial 1 + Trial 2), individual animals, listed as 197"}, "[4]": {"conditions": "Trial 1, individual animals, listed as 197"}, "[5]": {"conditions": "Trial 2, individual animals, listed as 197"}, "[6]": {"conditions": "elevated plus maze, trial 1 + trial 2, one value per mouse, listed as 197"}, "[7]": {"conditions": "elevated plus maze, trial 1, one value per mouse, listed as 197"}, "[8]": {"conditions": "elevated plus maze, trial 2, one value per mouse, listed as 197"}},
  "note": "“And” between values parts separate entries of the source, which are not always exact repeats. Equal entries are not always repeated.",
  "data": [
    {"compound": "Cc1cccc(-c2cc3nccc(N4CCOCC4)c3s2)c1", "note": "[BK40197]", "values": [
      {"measurement": "inhibition at 10 µM", "setting": "DDR1", "value": 0, "unit": "%"},
      {"measurement": "remaining binding at 10 µM", "setting": "DDR1; lower = stronger binding, read-out: DDR1 %Ctrl @ 10000nM", "value": 100, "unit": "%"},
      {"measurement": "Closed Entries", "setting": "mice [1]; [3]", "value": "13 and 8 and 4 and 2 and 14 and 3 and 9"},
      {"measurement": "Open Entries", "setting": "mice [1]; [3]", "value": "8 and 9 and 7 and 13 and 15 and 5 and 10"},
      {"measurement": "Time Closed", "setting": "mice [1]; Totals (Trial 1 + Trial 2), individual animals, listed as 197, in s", "value": "299 and 472 and 180 and 74 and 440 and 274 and 198 and 409"},
      {"measurement": "Time Open", "setting": "mice [1]; Totals (Trial 1 + Trial 2), individual animals, listed as 197, in s (unit assumed)", "value": "301 and 128 and 420 and 526 and 160 and 326 and 402 and 191"},
      {"measurement": "Closed Entries AVG", "setting": "mice [1]; Totals, group average", "value": 8.25},
      {"measurement": "Open Entries AVG", "setting": "mice [1]; Totals, group average", "value": 9.5},
      {"measurement": "Time Closed AVG", "setting": "mice [1]; Totals, group average, in s", "value": 293.25},
      {"measurement": "Time Open AVG", "setting": "mice [1]; Totals, group average, in s", "value": 306.75},
      {"measurement": "Closed Entries AVG", "setting": "mice [1]; Trial 1, group average", "value": 3.75},
      {"measurement": "Open Entries AVG", "setting": "mice [1]; Trial 1, group average", "value": 6.5},
      {"measurement": "Time Closed AVG", "setting": "mice [1]; Trial 1, group average, in s", "value": 86.375},
      {"measurement": "Time Open AVG", "setting": "mice [1]; Trial 1, group average, in s", "value": 213.625},
      {"measurement": "Closed Entries", "setting": "mice [1]; [4]", "value": "3 and 4 and 1 and 8 and 0 and 7"},
      {"measurement": "Open Entries", "setting": "mice [1]; [4]", "value": "5 and 6 and 8 and 4 and 11 and 1 and 9"},
      {"measurement": "Time Closed", "setting": "mice [1]; Trial 1, individual animals, listed as 197, in s", "value": "60 and 208 and 48 and 55 and 163 and 41 and 0 and 116"},
      {"measurement": "Time Open", "setting": "mice [1]; Trial 1, individual animals, listed as 197, in s (unit assumed)", "value": "240 and 92 and 252 and 245 and 137 and 259 and 300 and 184"},
      {"measurement": "Closed Entries AVG", "setting": "mice [1]; Trial 2, group average", "value": 4.5},
      {"measurement": "Open Entries AVG", "setting": "mice [1]; Trial 2, group average", "value": 3},
      {"measurement": "Time Closed AVG", "setting": "mice [1]; Trial 2, group average, in s", "value": 206.875},
      {"measurement": "Time Open AVG", "setting": "mice [1]; Trial 2, group average, in s", "value": 93.125},
      {"measurement": "Closed Entries", "setting": "mice [1]; [5]", "value": "10 and 4 and 1 and 5 and 3 and 2"},
      {"measurement": "Open Entries", "setting": "mice [1]; [5]", "value": "3 and 1 and 2 and 7 and 4"},
      {"measurement": "Time Closed", "setting": "mice [1]; Trial 2, individual animals, listed as 197, in s", "value": "239 and 264 and 132 and 19 and 277 and 233 and 198 and 293"},
      {"measurement": "Time Open", "setting": "mice [1]; Trial 2, individual animals, listed as 197, in s (unit assumed)", "value": "61 and 36 and 168 and 281 and 23 and 67 and 102 and 7"},
      {"measurement": "Time/Entry AVG", "setting": "mice [1]; elevated plus maze, group average", "value": 8.7983},
      {"measurement": "Open Entries AVG", "setting": "mice [1]; elevated plus maze, group average of totals", "value": 14.5714},
      {"measurement": "Time Open AVG", "setting": "mice [1]; elevated plus maze, group average of totals, in s", "value": 96.8},
      {"measurement": "Time/Entry", "setting": "mice [1]; elevated plus maze, total time open / total open entries, one value per mouse, listed as 197", "value": "3.925 and 5.671 and 12.2 and 2.561 and 11.6778 and 13.5375 and 12.015"},
      {"measurement": "Open Entries", "setting": "mice [1]; elevated plus maze, totals listed by treatment group, one value per mouse, listed as 197", "value": "12 and 7 and 2 and 44 and 9 and 8 and 20"},
      {"measurement": "Totals Closed Entries", "setting": "mice [1]; [6]", "value": "22 and 15 and 11 and 38 and 10 and 3 and 12"},
      {"measurement": "Totals Open Entries", "setting": "mice [1]; [6]", "value": "9 and 8 and 20 and 12 and 7 and 2 and 44"},
      {"measurement": "Totals Time Open", "setting": "mice [1]; elevated plus maze, trial 1 + trial 2, one value per mouse, listed as 197, in s", "value": "105.1 and 108.3 and 240.3 and 47.1 and 39.7 and 24.4 and 112.7"},
      {"measurement": "Totals Time Closed", "setting": "mice [1]; elevated plus maze, trial 1 + trial 2, one value per mouse, listed as 197, in s (unit assumed)", "value": "346 and 410.7 and 291.7 and 404.6 and 493.6 and 547.6 and 346.3"},
      {"measurement": "Trial 1 Closed Entries", "setting": "mice [1]; [7]", "value": "17 and 7 and 6 and 31 and 5 and 2 and 8"},
      {"measurement": "Trial 1 Open Entries", "setting": "mice [1]; [7]", "value": "6 and 8 and 12 and 10 and 1 and 15"},
      {"measurement": "Trial 1 Time Closed", "setting": "mice [1]; elevated plus maze, trial 1, one value per mouse, listed as 197, in s (unit assumed)", "value": "123.7 and 123.9 and 82.1 and 166.6 and 229.4 and 269.8 and 138"},
      {"measurement": "Trial 2 Closed Entries", "setting": "mice [1]; [8]", "value": "5 and 8 and 7 and 1 and 4"},
      {"measurement": "Trial 2 Open Entries", "setting": "mice [1]; [8]", "value": "3 and 0 and 8 and 2 and 1 and 29"},
      {"measurement": "Trial 2 Time Open", "setting": "mice [1]; elevated plus maze, trial 2, one value per mouse, listed as 197, in s", "value": "39.9 and 0 and 56.7 and 15.1 and 0.5 and 14.1 and 49"},
      {"measurement": "Trial 2 Time Closed", "setting": "mice [1]; elevated plus maze, trial 2, one value per mouse, listed as 197, in s (unit assumed)", "value": "222.3 and 286.8 and 209.6 and 238 and 264.2 and 277.8 and 208.3"},
      {"measurement": "Time/Entry AVG", "setting": "mice [1]; group average", "value": 38.3997},
      {"measurement": "Nesting Score", "setting": "mice [2]; average score of the raters listed by treatment group", "value": "2 and 1 and 0.5 and 0 and 3"},
      {"measurement": "Nesting Score AVG", "setting": "mice [2]; nesting, average of the raters", "value": "2 and 1 and 3 and 0.5 and 0"},
      {"measurement": "Nesting Score (KORLISS)", "setting": "mice [2]; nesting, rater KORLISS", "value": "2 (nestlet partially torn (50–90% intact)) and 1 (nestlet hardly touched (more than 90% intact)) and 4 and 0"},
      {"measurement": "Nesting Score(MAX)", "setting": "mice [2]; nesting, rater MAX", "value": "2 (nestlet partially torn (50–90% intact)) and 1 (nestlet hardly touched (more than 90% intact)) and 0"},
      {"measurement": "Weight", "setting": "mice [2]; nestlet weight listed by treatment group, in g (unit assumed)", "value": "2.1 and 2.8 and 2.5 and 2.6 and 2.9 and 1.7"}
    ]}
  ]
}
